Results: ChEMBL document CHEMBL1201862, “PubChem BioAssay data set” (2004)
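Method: 48-hour compound exposure of cells in 96-well plates, five concentrations, linear interpolation of endpoints. GI50 = concentration required for 50% inhibition of growth.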 Calls of active or inactive are those of the source. No stated cut-off is given here; in the data, active = GI50 up to about 1.1 µM and inactive = higher.

Tests used:
Assay in all cases: growth of human tumour cells (NCI), 48 h
ACHN = system: ACHN
CCRF-CEM = system: CCRF-CEM
EKVX = system: EKVX
HCC 2998 = system: HCC 2998
HL-60 = system: HL-60
MDA-MB-435 = system: MDA-MB-435
NCI-H460 = system: NCI-H460
NCI/ADR-RES = system: NCI/ADR-RES
RPMI-8226 = system: RPMI-8226
RXF 393 = system: RXF 393
SF-268 = system: SF-268
SK-MEL-2 = system: SK-MEL-2
SK-MEL-5 = system: SK-MEL-5
SK-OV-3 = system: SK-OV-3
SN12C = system: SN12C
SNB-19 = system: SNB-19
SR = system: SR
SW-620 = system: SW-620
TK-10 = system: TK-10
UACC-257 = system: UACC-257

| Structure (SMILES) | GI50 (ACHN) | GI50 (CCRF-CEM) | GI50 (EKVX) | GI50 (HCC 2998) | GI50 (HL-60) | GI50 (MDA-MB-435) | GI50 (NCI-H460) | GI50 (NCI/ADR-RES) | GI50 (RPMI-8226) | GI50 (RXF 393) | GI50 (SF-268) | GI50 (SK-MEL-2) | GI50 (SK-MEL-5) | GI50 (SK-OV-3) | GI50 (SN12C) | GI50 (SNB-19) | GI50 (SR) | GI50 (SW-620) | GI50 (TK-10) | GI50 (UACC-257) |
| --- | --- | --- | --- | --- | --- | --- | --- | --- | --- | --- | --- | --- | --- | --- | --- | --- | --- | --- | --- | --- |
| COc1cccc(C(=O)C(O)c2cccc(OC)c2OC)c1OC (stereo not given) | > 100 µM (inactive) | > 100 µM (inactive) | > 100 µM (inactive) | > 100 µM (inactive) | > 100 µM (inactive) | > 100 µM (inactive) | > 100 µM (inactive) | > 100 µM (inactive) | > 100 µM (inactive) | > 100 µM (inactive) | > 100 µM (inactive) | > 100 µM (inactive) | > 100 µM (inactive) | > 100 µM (inactive) | > 100 µM (inactive) | > 100 µM (inactive) | > 100 µM (inactive) | > 100 µM (inactive) | > 100 µM (inactive) | > 100 µM (inactive) |
| COC(COC(N)=O)C1=C(N2CC2)C(=O)C(C)=C(N2CC2)C1=O (stereo not given) [CARBOQUONE] | < 0.01 µM (active) | 0.0355 µM (active) | 0.47 µM (active) | 0.131 µM (active) | < 0.0114 µM (active) | 0.0359 µM (active) | < 0.01 µM (active) | 0.0241 µM (active) | 0.117 µM (active) | 0.107 µM (active) | < 0.016 µM (active) | 0.193 µM (active) | 0.046 µM (active) | 0.0718 µM (active) | < 0.0266 µM (active) | 0.0646 µM (active) | < 0.0221 µM (active) | 0.0302 µM (active) | 0.239 µM (active) | 0.126 µM (active) |
